# Measured values: ChEMBL document CHEMBL1132775, “N1-(Benzenesulfonyl)tryptamines as novel 5-HT6 antagonists” (Bioorg Med Chem Lett, 2000)
# Legend:
# [1] = target: T1, 5-hydroxytryptamine receptor 6 (Homo sapiens, UniProt P50406); assay: Binding affinity against human 5-hydroxytryptamine 6 receptor stably transfected to HEK 293 human embryonic kidney cells using [3H]-lysergic acid diethylamide as radioligand; type: cell-based, HEK293
# [2] = target: T2, 5-hydroxytryptamine receptor 2C (Rattus norvegicus, UniProt P08909); assay: Compound was evaluated for its binding affinity for rat 5-hydroxytryptamine 2C receptor
# T2 sequence (P08909 whole entry): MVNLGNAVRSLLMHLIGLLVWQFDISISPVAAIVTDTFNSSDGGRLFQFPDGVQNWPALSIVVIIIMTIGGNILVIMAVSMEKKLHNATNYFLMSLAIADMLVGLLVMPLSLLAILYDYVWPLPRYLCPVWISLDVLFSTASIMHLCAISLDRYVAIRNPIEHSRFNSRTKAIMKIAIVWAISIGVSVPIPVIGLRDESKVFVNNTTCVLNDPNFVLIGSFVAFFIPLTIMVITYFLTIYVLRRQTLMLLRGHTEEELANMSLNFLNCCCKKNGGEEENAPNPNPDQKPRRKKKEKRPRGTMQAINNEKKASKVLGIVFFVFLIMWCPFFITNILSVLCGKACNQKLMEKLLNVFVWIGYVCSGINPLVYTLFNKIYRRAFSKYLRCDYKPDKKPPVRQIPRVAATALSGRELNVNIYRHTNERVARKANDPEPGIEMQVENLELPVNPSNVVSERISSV
# [3] = target: T1, 5-hydroxytryptamine receptor 6
# [4] = target: 5-hydroxytryptamine receptor 7 (Homo sapiens, UniProt P34969); assay: Compound was evaluated for its binding affinity for human 5-hydroxytryptamine 7 receptor
# 5-hydroxytryptamine receptor 7, sequence (P34969 whole entry): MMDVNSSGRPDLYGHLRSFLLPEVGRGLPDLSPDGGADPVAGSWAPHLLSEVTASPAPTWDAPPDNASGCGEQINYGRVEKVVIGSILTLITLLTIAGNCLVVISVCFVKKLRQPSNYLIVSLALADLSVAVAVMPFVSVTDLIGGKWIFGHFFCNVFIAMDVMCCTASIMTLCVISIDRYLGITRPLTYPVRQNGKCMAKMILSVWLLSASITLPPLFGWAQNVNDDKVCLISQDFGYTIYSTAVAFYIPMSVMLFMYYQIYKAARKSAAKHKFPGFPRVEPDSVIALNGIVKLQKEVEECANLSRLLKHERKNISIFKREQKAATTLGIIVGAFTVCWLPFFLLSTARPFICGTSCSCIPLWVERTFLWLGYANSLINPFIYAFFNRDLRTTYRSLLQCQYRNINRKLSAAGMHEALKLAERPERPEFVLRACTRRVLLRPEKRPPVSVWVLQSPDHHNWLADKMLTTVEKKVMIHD
# [5] = Compound was evaluated for its binding affinity for human 5-hydroxytryptamine 3 receptor
# [6] = target: 5-hydroxytryptamine receptor 1E (Homo sapiens, UniProt P28566); assay: Compound was evaluated for its binding affinity for human 5-hydroxytryptamine 1E receptor
# 5-hydroxytryptamine receptor 1E, sequence (P28566 whole entry): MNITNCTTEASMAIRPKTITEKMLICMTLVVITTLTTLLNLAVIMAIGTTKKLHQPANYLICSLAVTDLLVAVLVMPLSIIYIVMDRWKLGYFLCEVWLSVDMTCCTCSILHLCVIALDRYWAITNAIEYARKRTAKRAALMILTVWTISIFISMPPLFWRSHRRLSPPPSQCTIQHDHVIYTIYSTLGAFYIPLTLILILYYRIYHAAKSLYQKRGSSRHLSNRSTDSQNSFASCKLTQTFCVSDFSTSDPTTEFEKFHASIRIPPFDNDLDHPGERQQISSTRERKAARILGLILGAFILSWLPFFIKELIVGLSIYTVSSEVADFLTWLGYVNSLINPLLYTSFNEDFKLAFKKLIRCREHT
# [7] = target: 5-hydroxytryptamine receptor 2A (Rattus norvegicus, UniProt P14842); assay: Compound was evaluated for its binding affinity for rat 5-hydroxytryptamine 2A receptor
# 5-hydroxytryptamine receptor 2A, sequence (P14842 whole entry): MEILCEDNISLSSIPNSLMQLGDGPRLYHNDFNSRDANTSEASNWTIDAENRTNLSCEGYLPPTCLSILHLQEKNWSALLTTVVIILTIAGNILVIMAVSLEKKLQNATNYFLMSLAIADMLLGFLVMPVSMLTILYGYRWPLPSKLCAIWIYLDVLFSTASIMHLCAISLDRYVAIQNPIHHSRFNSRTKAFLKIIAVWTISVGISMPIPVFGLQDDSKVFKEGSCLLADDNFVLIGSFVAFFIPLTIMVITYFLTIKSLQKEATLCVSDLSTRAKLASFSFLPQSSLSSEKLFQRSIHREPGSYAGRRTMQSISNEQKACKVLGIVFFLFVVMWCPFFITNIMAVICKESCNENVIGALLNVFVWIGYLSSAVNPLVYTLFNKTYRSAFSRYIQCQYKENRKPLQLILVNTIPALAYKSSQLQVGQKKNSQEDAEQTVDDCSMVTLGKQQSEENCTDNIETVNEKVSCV
# [8] = target: 5-hydroxytryptamine receptor 1B (Homo sapiens, UniProt P28222); assay: Compound was evaluated for its binding affinity for human 5-hydroxytryptamine 1B receptor
# 5-hydroxytryptamine receptor 1B, sequence (P28222 whole entry): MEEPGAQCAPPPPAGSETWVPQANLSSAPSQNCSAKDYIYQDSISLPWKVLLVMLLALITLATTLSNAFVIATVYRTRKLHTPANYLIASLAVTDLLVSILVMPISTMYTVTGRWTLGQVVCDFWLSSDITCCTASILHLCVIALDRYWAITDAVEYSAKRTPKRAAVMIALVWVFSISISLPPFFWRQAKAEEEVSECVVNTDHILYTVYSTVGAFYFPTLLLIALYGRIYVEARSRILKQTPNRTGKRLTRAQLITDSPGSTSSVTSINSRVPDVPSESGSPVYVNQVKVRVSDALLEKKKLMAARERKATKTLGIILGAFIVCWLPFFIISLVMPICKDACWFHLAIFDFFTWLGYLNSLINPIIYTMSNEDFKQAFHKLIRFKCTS
# T1 sequence (P50406 whole entry): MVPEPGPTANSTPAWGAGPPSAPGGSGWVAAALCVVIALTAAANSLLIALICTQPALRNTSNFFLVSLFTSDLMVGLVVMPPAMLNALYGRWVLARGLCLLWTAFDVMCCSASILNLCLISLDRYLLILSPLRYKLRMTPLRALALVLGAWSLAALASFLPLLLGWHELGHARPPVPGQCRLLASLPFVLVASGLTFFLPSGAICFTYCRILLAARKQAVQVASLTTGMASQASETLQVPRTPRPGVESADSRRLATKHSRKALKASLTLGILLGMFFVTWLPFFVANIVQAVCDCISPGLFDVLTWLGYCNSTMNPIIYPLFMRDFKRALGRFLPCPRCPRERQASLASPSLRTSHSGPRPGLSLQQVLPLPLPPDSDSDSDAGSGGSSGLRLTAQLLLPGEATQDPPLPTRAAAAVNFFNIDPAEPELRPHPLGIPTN
SMILES,Ki [1] [nM],also measured
COc1cccc2c(CCN(C)C)cn(S(=O)(=O)c3ccc(Cl)cc3)c12,45,
COc1ccc2c(c1)c(CCN(C)C)cn2S(=O)(=O)c1cccc2ccccc12,0.9,
COc1ccc(S(=O)(=O)n2cc(CCN(C)C)c3cc(OC)ccc32)cc1,8,
COc1ccc(OC)c(S(=O)(=O)n2cc(CCN(C)C)c3ccc(OC)cc32)c1,9.5,
COc1ccc2c(c1)c(CCN(C)C)cn2S(=O)(=O)c1ccccc1,2.3,Ki [2]: 23 nM; pA2 [3]: 8.88; Ki [4]: 600 nM; Ki [5]: 2390 nM; Ki [6]: 4220 nM; Ki [7]: 130 nM; Ki [8]: 9210 nM
COc1cccc2c(CCN(C)C)cn(S(=O)(=O)c3ccc4ccccc4c3)c12,5,
COc1ccc2c(c1)c(CCN(C)C)cn2S(=O)(=O)c1ccc2ccccc2c1,1.6,
COc1ccc2c(c1)c(CCN(C)C)cn2S(=O)(=O)c1ccc(Cl)cc1,3.1,
COc1ccc(OC)c(S(=O)(=O)n2cc(CCN(C)C)c3cc(OC)ccc32)c1,1.3,
COc1ccc(OC)c(S(=O)(=O)n2cc(CCN(C)C)c3c(OC)cccc32)c1,7.4,
COc1ccc(OC)c(S(=O)(=O)n2cc(CCN(C)C)c3cccc(OC)c32)c1,183,
COc1ccc(S(=O)(=O)n2cc(CCN(C)C)c3cccc(OC)c32)cc1,93,
